≈ marks a conversion by molar mass, not a printed value. Calls of active or inactive are those of the source. The rule behind the calls is not given here.
How the values were obtained:
[1] = test system: Candida albicans; assay: Antifungal activity against fluconazole-resistant Candida albicans 17# assessed as inhibition of microbial growth after 24 hrs by broth microdilution method; format: functional
[2] = biological target: T1, Lanosterol 14-alpha demethylase (Candida albicans (strain SC5314 / ATCC MYA-2876) (Yeast), UniProt P10613); assay: Inhibition of CYP51 in Candida albicans ATCC SC5314 assessed as lanosterol level at […] ug/ml after 16 hrs by GC-MS analysis (reference value: 1.7%); design: scale not given: the % may be the effect or the level left; settings: candida albicans sc5314, 16 h, dose 0.125 µg/ml
[3] = test system: Candida albicans; assay: Fungicidal activity against Candida albicans CPCC400616 at 2 ug/ml incubated within 8 hrs and measured after 24 hrs culturing on PDA plate by time-kill kinetics analysis (reference value: 5 log10CFU/ml); format: functional; settings: dose 2 µg/ml; time 32 hrs
[4] = Metabolic stability in mouse liver microsomes assessed as clearance; format: ADME, Microsome; settings: read-out: CLH
[5] = test system: Candida albicans; assay: Antifungal activity against fluconazole-resistant Candida albicans 904 assessed as inhibition of microbial growth after 24 hrs by broth microdilution method; format: functional
[6] = test system: Aspergillus fumigatus; assay: Antifungal activity against Aspergillus fumigatus CMGCC3.7795 measured after 72 hrs by broth microdilution assay; format: functional
[7] = Hemolytic activity in rabbit RBC assessed as hemolysis ratio at 16 ug/ml measured after 3 hrs by microplate reader assay relative to control; format: ADME, cell-based, Oryctolagus cuniculus, Erythrocyte; settings: rabbit red blood cells (erythrocytes), at 16 µg/mL, read-out: Activity
[8] = test system: Candida albicans; assay: Antifungal activity against fluconazole-resistant Candida albicans CaR assessed as inhibition of microbial growth after 24 hrs by broth microdilution method; format: functional
[9] = AUC (0 to t) in Sprague-Dawley rat at 5 mg/kg, po by LC-MS analysis; format: ADME, organism-based; design: dose 5 mg/kg; settings: in vivo
[10] = Half life in Sprague-Dawley rat at 2 mg/kg, iv by LC-MS analysis; format: ADME, organism-based; settings: in vivo
[11] = Metabolic stability in mouse liver microsomes assessed as half life; format: ADME, Microsome
[12] = biological target: T1, Lanosterol 14-alpha demethylase; assay: Inhibition of CYP51 in Candida albicans ATCC SC5314 assessed as ergosterol level at 8 ug/ml after 16 hrs by GC-MS analysis (reference value: 98.3%); design: scale not given: the % may be the effect or the level left; settings: candida albicans sc5314, 16 h, at 8 µg/mL
[13] = test system: Candida albicans; assay: Antifungal activity against Candida albicans ATCC SC5314 infected in mouse model of candidiasis assessed as reduction in kidney fungal burden at 0.6 mg/kg/day, ip dosed at 2 hrs post infection and dosed for 4 days; format: functional, organism-based; settings: time 4.0 day
[14] = test system: Candida albicans; assay: Potency index, ratio of fluconazole MIC to test compound MIC for Candida albicans CPCC400616 measured after 24 hrs by broth microdilution assay; format: functional
[15] = Half life in Sprague-Dawley rat at 5 mg/kg, po by LC-MS analysis; format: ADME, organism-based; settings: in vivo
[16] = test system: Candida albicans; assay: Antifungal activity against Candida albicans CPCC400616 measured after 24 hrs by broth microdilution assay; format: functional
[17] = AUC (0 to t) in Sprague-Dawley rat at 2 mg/kg, iv by LC-MS analysis; format: ADME, organism-based; design: dose 2 mg/kg; settings: in vivo
[18] = Selectivity ratio of IC50 for human MCF-10A cells to MIC for Candida albicans CPCC400616; format: toxicity
[19] = test system: Candida albicans; assay: Anti-biofilm activity in Candida albicans CPCC400616 assessed as inhibition of biofilm formation at 16 ug/ml incubated for 24 hrs with 3 hrs precultured fungal suspension by XTT assay relative to control; format: functional
[20] = Selectivity ratio of IC50 for human MDA-MB-231 cells to MIC for Candida albicans CPCC400616; format: toxicity
[21] = biological target: T1, Lanosterol 14-alpha demethylase; assay: Inhibition of CYP51 in Candida albicans ATCC SC5314 assessed as Eburicol level at […] ug/ml after 16 hrs by GC-MS analysis (reference value: 0%); design: scale not given: the % may be the effect or the level left; settings: candida albicans sc5314, 16 h, dose 0.125 µg/ml
[22] = Oral bioavailability in Sprague-Dawley rat at 5 mg/kg by LC-MS analysis; format: ADME, organism-based; settings: in vivo
[23] = test system: Candida albicans; assay: Antifungal activity against fluconazole-resistant Candida albicans 632 assessed as inhibition of microbial growth after 24 hrs by broth microdilution method; format: functional
[24] = test system: Candida albicans; assay: Antifungal activity against fluconazole-resistant Candida albicans 901 assessed as inhibition of microbial growth after 24 hrs by broth microdilution method; format: functional
[25] = test system: Candida albicans; assay: Fungicidal activity against Candida albicans CPCC400616 incubated for 24 hrs and measured after 24 hrs culturing on PDA plate by time-kill kinetics analysis; format: functional, organism-based; settings: dose 0.25-2 µg/ml, time 48.0 hrs
[26] = test system: Candida albicans; assay: Antifungal activity against Candida albicans ATCC SC5314 infected in mouse model of candidiasis assessed as reduction in kidney fungal burden at 0.4 mg/kg/day, ip dosed at 2 hrs post infection and dosed for 4 days; format: functional, organism-based; settings: time 4.0 day
[27] = Selectivity ratio of IC50 for human PC-3 cells to MIC for Candida albicans CPCC400616; format: toxicity
[28] = test system: MCF-10A; assay: Cytotoxicity against human MCF-10A cells assessed as reduction in cell viability incubated for 96 hrs by MTT assay; format: cell-based; settings: read-out: IC50
[29] = biological target: T1, Lanosterol 14-alpha demethylase; assay: Inhibition of CYP51 in Candida albicans ATCC SC5314 assessed as Obtusifoliol level at 0.03125 ug/ml after 16 hrs by GC-MS analysis (reference value: 0%); design: scale not given: the % may be the effect or the level left; settings: candida albicans sc5314, 16 h, at 0.03125 µg/mL
[30] = Selectivity ratio of IC50 for human HL-60 cells to MIC for Candida albicans CPCC400616; format: toxicity
[31] = test system: Candida albicans; assay: Fungicidal activity against Candida albicans CPCC400616 at 2 ug/ml incubated for 24 hrs and measured after 24 hrs culturing on PDA plate by time-kill kinetics analysis; format: functional, organism-based; settings: dose 2.0 µg/ml, time 48.0 hrs
[32] = test system: Erythrocyte; assay: Hemolytic activity in rabbit RBC measured after 3 hrs by microplate reader assay; format: ADME, cell-based, Oryctolagus cuniculus
[33] = test system: Candida albicans; assay: Anti-biofilm activity in Candida albicans CPCC400616 assessed as inhibition of biofilm formation at 32 ug/ml incubated for 24 hrs with 3 hrs precultured fungal suspension by XTT assay relative to control; format: functional
[34] = test system: Candida albicans; assay: Ratio of MFC for Candida albicans CPCC400616 incubated for 48 hrs followed by culturing on PDA plate for 24 hrs to MIC for Candida albicans CPCC400616 measured after 24 hrs; format: functional

T1 sequence (P10613 whole entry): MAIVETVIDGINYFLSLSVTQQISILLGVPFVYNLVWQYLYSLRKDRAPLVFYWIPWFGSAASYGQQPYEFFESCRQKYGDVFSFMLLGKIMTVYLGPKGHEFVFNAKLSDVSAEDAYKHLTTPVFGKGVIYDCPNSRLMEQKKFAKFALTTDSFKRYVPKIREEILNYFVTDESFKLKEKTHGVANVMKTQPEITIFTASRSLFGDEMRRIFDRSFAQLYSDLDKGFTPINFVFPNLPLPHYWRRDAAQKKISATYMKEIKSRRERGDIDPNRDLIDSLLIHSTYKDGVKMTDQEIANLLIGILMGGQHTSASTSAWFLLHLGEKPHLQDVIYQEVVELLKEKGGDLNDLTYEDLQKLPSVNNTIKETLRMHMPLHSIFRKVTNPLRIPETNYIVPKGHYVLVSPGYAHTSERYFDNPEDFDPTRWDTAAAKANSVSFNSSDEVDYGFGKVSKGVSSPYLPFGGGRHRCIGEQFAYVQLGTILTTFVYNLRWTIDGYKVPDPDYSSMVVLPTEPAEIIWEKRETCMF

Fc1ccc([Se]C(Cn2ccnc2)c2ccc(F)cc2F)cc1 (stereo not drawn)
MIC [1]: 0.06 µg/mL
Activity [2]: 9.9%
Activity [3]: 2 log10CFU/ml
CLint scaled [4]: 282 mL/min/kg
MIC [5]: 0.06 µg/mL
MIC [6]: 4 µg/mL (≈ 10.5 µM)
hemolysis at 3 h, 16 ug/ml [7]: 100%
MIC [8]: 1 µg/mL
AUC(0-t) [9]: 1260 ng·h/mL
half-life [10]: 1.89 h
half-life [11]: 0.323 h
Activity [12]: 2.1%
Activity [13]: Active
Ratio [14]: 8
half-life [15]: 1.93 h
MIC [16]: 0.25 µg/mL (≈ 0.656 µM)
AUC(0-t) [17]: 2250 ng·h/mL
selectivity ratio [18]: 38
inhibition at 16 µg/mL [19]: 80%
selectivity ratio [20]: 38
Activity [21]: 73.2%
bioavailability [22]: 22.3%
MIC [23]: 0.5 µg/mL
MIC [24]: 0.5 µg/mL
Activity [25]: Dose-Dependent Effect
Activity [26]: Active
selectivity ratio [27]: 38
IC50 [28]: 59.4 µM
Activity [29]: 17%
selectivity ratio [30]: 38

Clc1ccc(COC(Cn2ccnc2)c2ccc(Cl)cc2Cl)c(Cl)c1 (stereo not drawn) [MICONAZOLE]
Activity [2]: 9.5%
CLint scaled [4]: 660 mL/min/kg
Activity [31]: Active
MIC [6]: 2 µg/mL (≈ 4.81 µM)
hemolysis at 3 h, 16 ug/ml [7]: 94%
MHC [32]: 8 µg/mL
half-life [11]: 0.138 h
Activity [12]: 4.1%
MIC [16]: 0.25 µg/mL (≈ 0.601 µM)
inhibition at 32 µg/mL [33]: 50%
Ratio [34]: 8
Activity [21]: 64.8%
Activity [29]: 7.2%

— ChEMBL document CHEMBL4813985, “Lead optimization generates selenium-containing miconazole CYP51 inhibitors with improved pharmacological profile for the treatment of fungal infections” (Eur J Med Chem, 2021)
